The values below come from patent publication US12662489B2 (Sitryx Therapeutics Limited, priority 2023, dated 2026).

pIC50: −log10 of the molar value.

The target in experiment [1] is T1, MTHFD1 recombinant human enzyme (Homo sapiens, UniProt P11586).
T1 sequence (P11586 2-291 limits assumed): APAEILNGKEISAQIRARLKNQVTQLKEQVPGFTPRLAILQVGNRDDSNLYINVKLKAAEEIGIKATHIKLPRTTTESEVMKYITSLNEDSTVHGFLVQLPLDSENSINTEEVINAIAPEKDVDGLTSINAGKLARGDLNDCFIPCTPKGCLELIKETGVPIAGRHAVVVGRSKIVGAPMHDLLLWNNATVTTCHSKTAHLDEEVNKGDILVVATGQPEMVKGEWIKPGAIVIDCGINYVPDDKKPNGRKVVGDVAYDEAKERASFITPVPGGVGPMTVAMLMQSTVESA
The experiment is described as follows: MTHFD1 inhibition assay (NAD(P)H-Glo luminescence). Particulars: MTHFD1 IC50, recombinant human enzyme 200 nM, NADP, band.

In experiment [2] the target is T2, MTHFD2 recombinant human enzyme (Homo sapiens, UniProt P13995).
T2 sequence (P13995 36-350): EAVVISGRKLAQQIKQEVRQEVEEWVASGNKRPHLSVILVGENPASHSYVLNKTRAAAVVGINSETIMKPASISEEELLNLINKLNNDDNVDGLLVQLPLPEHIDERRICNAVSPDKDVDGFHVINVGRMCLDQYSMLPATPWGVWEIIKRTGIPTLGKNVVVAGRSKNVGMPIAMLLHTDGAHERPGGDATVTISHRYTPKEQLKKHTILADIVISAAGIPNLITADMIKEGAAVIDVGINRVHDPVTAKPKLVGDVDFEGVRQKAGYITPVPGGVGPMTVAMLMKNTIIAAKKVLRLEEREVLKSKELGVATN
Description: MTHFD2 inhibition assay (NAD(P)H-Glo luminescence). Particulars: for MTHFD1/MTHFD2 IC50 ratio: selectivity of MTHFD2 inhibition over MTHFD1, band.

`COC[C@H]1CN(c2cc(Cl)c3c4c(c(=O)oc3c2C)CN(C(=O)c2ccc(C(=O)NS(=O)(=O)N3CC5(CCC5)C3)c(OC)c2)CC4)CCN1C` [Example 279, (R)-N-((2-azaspiro[3.3]heptan-2-yl)sulfonyl)-4-(10-chloro-8-(3-(methoxymethyl)-4-methylpiperazin-1-yl)-7-methyl-5-oxo-1,3,4,5-tetrahydro-2H-chromeno[3,4-c]pyridine-3-carbonyl)-2-methoxybenzamide]: the results for the pIC50 in experiment [1] and in experiment [2] were 6.00 to 7.00 and 7.00 to 8.00, respectively. For the same compound, in experiment [2], the “MTHFD1/MTHFD2 IC50 ratio” value is recorded as “H (>9.0 to 30)”.
The matching figures for `COC[C@H]1CN(c2ccc3c4c(c(=O)oc3c2C)CN(C(=O)c2cc(F)c(C(=O)NS(=O)(=O)N(C)C)c(N3CC5CC5C3)c2)CC4)CCN1C` (stereo partly drawn) [Example 27, 2-(3-azabicyclo[3.1.0]hexan-3-yl)-N-(N,N-dimethylsulfamoyl)-6-fluoro-4-(8-((R)-3-(methoxymethyl)-4-methylpiperazin-1-yl)-7-methyl-5-oxo-1,3,4,5-tetrahydro-2H-chromeno[3,4-c]pyridine-3-carbonyl)benzamide]: 8.00 to 9.00, 8.00 to 9.00 and “F (<3)”.
The matching figures for `COC[C@H]1CN(c2cc(C)c3c4c(c(=O)oc3c2C)CN(C(=O)c2ccc(C(=O)NS(=O)(=O)N(C)C)c(N(C)C3CC3)c2)CC4)CCN1C` [Example 84, (R)-2-(cyclopropyl(methyl)amino)-N-(N,N-dimethylsulfamoyl)-4-(8-(3-(methoxymethyl)-4-methylpiperazin-1-yl)-7,10-dimethyl-5-oxo-1,3,4,5-tetrahydro-2H-chromeno[3,4-c]pyridine-3-carbonyl)benzamide]: 7.00 to 8.00, 8.00 to 9.00 and “G (^ 3 to 9.0)”.
Taken in the same sequence, the figures for `COC[C@H]1CN(c2ccc3c4c(c(=O)oc3c2C)CN(C(=O)c2ccc(C(=O)NS(=O)(=O)N(C)C(C)C)c(O[C@@H]3C[C@@H]5C[C@@H]5C3)c2F)CC4)CCN1C` [Example 64, 2-(((1R,3r,5S)-bicyclo[3.1.0]hexan-3-yl)oxy)-3-fluoro-N-(N-isopropyl-N-methylsulfamoyl)-4-(8-((R)-3-(methoxymethyl)-4-methylpiperazin-1-yl)-7-methyl-5-oxo-1,3,4,5-tetrahydro-2H-chromeno[3,4-c]pyridine-3-carbonyl)benzamide] were 8.00 to 9.00, 8.00 to 9.00 and “F (<3)”.
On to `CCOc1cc(C(=O)N2CCc3c(c(=O)oc4c(C)c(N5CCN(C)[C@@H](COC)C5)cc(C)c34)C2)c(F)cc1C(=O)NS(=O)(=O)N1CC[C@@H](F)C1` [Example 261, 2-ethoxy-5-fluoro-N-(((R)-3-fluoropyrrolidin-1-yl)sulfonyl)-4-(8-((R)-3-(methoxymethyl)-4-methylpiperazin-1-yl)-7,10-dimethyl-5-oxo-1,3,4,5-tetrahydro-2H-chromeno[3,4-c]pyridine-3-carbonyl)benzamide], for which the pIC50 (commonly −log10 of the IC50, conventionally taken in molar units) was 6.00 to 7.00 in experiment [1] and 8.00 to 9.00 in experiment [2].
On to `COC[C@H]1CN(c2cc(C)c3c4c(c(=O)oc3c2C)CN(C(=O)c2ccc(C(=O)NS(=O)(=O)N3CCCC3)c(OC3C[C@@H]5C[C@@H]5C3)c2)CC4)CCN1C` (mixture of isomers) [Example 109, 2-(bicyclo[3.1.0]hexan-3-yloxy)-4-(8-((R)-3-(methoxymethyl)-4-methylpiperazin-1-yl)-7,10-dimethyl-5-oxo-1,3,4,5-tetrahydro-2H-chromeno[3,4-c]pyridine-3-carbonyl)-N-(pyrrolidin-1-ylsulfonyl)benzamide], for which the pIC50 in experiment [1] is 7.00 to 8.00. In addition, in experiment [2], the pIC50 was 7.00 to 8.00 and the “MTHFD1/MTHFD2 IC50 ratio” value was “F (<3)”.
Regarding `COC[C@H]1CN(c2cc(C)c3c4c(c(=O)oc3c2C)CN(C(=O)c2ccc(C(=O)NS(=O)(=O)N(C)C)c(N3CCC[C@@H]3C)c2)CC4)CCN1C` [Example 103, N-(N,N-dimethylsulfamoyl)-4-(8-((R)-3-(methoxymethyl)-4-methylpiperazin-1-yl)-7,10-dimethyl-5-oxo-1,3,4,5-tetrahydro-2H-chromeno[3,4-c]pyridine-3-carbonyl)-2-((S)-2-methylpyrrolidin-1-yl)benzamide], in experiment [1], the pIC50 was 8.00 to 9.00. Further, in experiment [2], the pIC50 is 8.00 to 9.00 and the “MTHFD1/MTHFD2 IC50 ratio” value is on record as “G (^ 3 to 9.0)”.
Take `COC[C@H]1CN(c2ccc3c4c(c(=O)oc3c2C)CN(C(=O)c2ccc(C(=O)NS(=O)(=O)N3CCCC3)c(O[C@@H]3C[C@@H]5C[C@@H]5C3)c2F)CC4)CCN1C` [Example 63, 2-(((1R,3r,5S)-bicyclo[3.1.0]hexan-3-yl)oxy)-3-fluoro-4-(8-((R)-3-(methoxymethyl)-4-methylpiperazin-1-yl)-7-methyl-5-oxo-1,3,4,5-tetrahydro-2H-chromeno[3,4-c]pyridine-3-carbonyl)-N-(pyrrolidin-1-ylsulfonyl)benzamide]: the pIC50 in experiment [1] is 8.00 to 9.00. Also, in experiment [2], the negative-log IC50 (pIC50) was 8.00 to 9.00 and the “MTHFD1/MTHFD2 IC50 ratio” value was “F (<3)”.
`CCOc1c(C(=O)NS(=O)(=O)N2CCCCC2)ccc(C(=O)N2CCc3c(c(=O)oc4c(C)c(N5CCN(C)[C@@H](COC)C5)ccc34)C2)c1F` [Example 198, (R)-2-ethoxy-3-fluoro-4-(8-(3-(methoxymethyl)-4-methylpiperazin-1-yl)-7-methyl-5-oxo-1,3,4,5-tetrahydro-2H-chromeno[3,4-c]pyridine-3-carbonyl)-N-(piperidin-1-ylsulfonyl)benzamide]: in experiment [1], the pIC50 was 6.00 to 7.00. In experiment [2], the pIC50 was 6.00 to 7.00 and the “MTHFD1/MTHFD2 IC50 ratio” value is recorded as “F (<3)”.
`COC[C@H]1CN(c2ccc3c4c(c(=O)oc3c2C)CN(C(=O)c2cc(N(C)C)c(C(=O)NS(=O)(=O)N3CCC5(CC3)CC5)cc2F)CC4)CCN1C` [Example 189, (R)-N-((6-azaspiro[2.5]octan-6-yl)sulfonyl)-2-(dimethylamino)-5-fluoro-4-(8-(3-(methoxymethyl)-4-methylpiperazin-1-yl)-7-methyl-5-oxo-1,3,4,5-tetrahydro-2H-chromeno[3,4-c]pyridine-3-carbonyl)benzamide]: in experiment [1], the pIC50 was 5.30 to 6.00. In experiment [2], the pIC50 is 6.00 to 7.00 and the “MTHFD1/MTHFD2 IC50 ratio” value is given as “H (>9.0 to 30)”.
Turning to `COC[C@H]1CN(c2cc(C)c3c4c(c(=O)oc3c2C)CN(C(=O)c2cc(F)c(C(=O)NS(=O)(=O)N3CCCC3)cc2N(C)C)CC4)CCN1C` [Example 243], the pIC50 in experiment [1] was 5.30 to 6.00. In experiment [2], the negative logarithm of the IC50 (pIC50) is 7.00 to 8.00 and the “MTHFD1/MTHFD2 IC50 ratio” value is listed as “J (>30)”.
The matching figures for `COC[C@H]1CN(c2cc(C)c3c4c(c(=O)oc3c2C)CN(C(=O)c2ccc(C(=O)NS(=O)(=O)N(C)C)c(N3CC5CC5C3)c2)CC4)CCN1C` (stereo partly drawn) [Example 47, 2-(3-azabicyclo[3.1.0]hexan-3-yl)-N-(N,N-dimethylsulfamoyl)-4-(8-((R)-3-(methoxymethyl)-4-methylpiperazin-1-yl)-7,10-dimethyl-5-oxo-1,3,4,5-tetrahydro-2H-chromeno[3,4-c]pyridine-3-carbonyl)benzamide]: 8.00 to 9.00, 8.00 to 9.00 and “G (^ 3 to 9.0)”.
As to `CCOc1cc(C(=O)N2CCc3c(c(=O)oc4c(C)c(N5CCN(C)[C@@H](COC)C5)cc(Cl)c34)C2)c(F)cc1C(=O)NS(=O)(=O)N1C2CCC1CC2` [Example 317, (R)-N-((7-azabicyclo[2.2.1]heptan-7-yl)sulfonyl)-4-(10-chloro-8-(3-(methoxymethyl)-4-methylpiperazin-1-yl)-7-methyl-5-oxo-1,3,4,5-tetrahydro-2H-chromeno[3,4-c]pyridine-3-carbonyl)-2-ethoxy-5-fluorobenzamide], in experiment [1], the pIC50 is 6.00 to 7.00. Also, in experiment [2], the pIC50 is 7.00 to 8.00 and the “MTHFD1/MTHFD2 IC50 ratio” value is recorded as “J (>30)”.
Taken in the same sequence, the figures for `COC[C@H]1CN(c2cc(C)c3c4c(c(=O)oc3c2C)CN(C(=O)c2ccc(C(=O)NS(=O)(=O)N(C)C(C)C)c(O[C@@H]3C[C@@H]5C[C@@H]5C3)c2F)CC4)CCN1C` [Example 36, 2-(((1R,3r,5S)-bicyclo[3.1.0]hexan-3-yl)oxy)-3-fluoro-N-(N-isopropyl-N-methylsulfamoyl)-4-(8-((R)-3-(methoxymethyl)-4-methylpiperazin-1-yl)-7,10-dimethyl-5-oxo-1,3,4,5-tetrahydro-2H-chromeno[3,4-c]pyridine-3-carbonyl)benzamide] were 8.00 to 9.00, 8.00 to 9.00 and “F (<3)”.
Regarding `COC[C@H]1CN(c2cc(C)c3c4c(c(=O)oc3c2C)CN(C(=O)c2ccc(C(=O)NS(=O)(=O)N(C)C)c(N3CCCC(F)(F)C3)c2F)CC4)CCN1C` [Example 78, (R)-2-(3,3-difluoropiperidin-1-yl)-N-(N,N-dimethylsulfamoyl)-3-fluoro-4-(8-(3-(methoxymethyl)-4-methylpiperazin-1-yl)-7,10-dimethyl-5-oxo-1,3,4,5-tetrahydro-2H-chromeno[3,4-c]pyridine-3-carbonyl)benzamide], the pIC50 in experiment [1] and in experiment [2] was 8.00 to 9.00 each time.
